What was measured:
Assay type in all cases: in vivo
[1] = system: yellow fever mosquito (Aedes aegypti); experiment: whole plant or invertebrate; settings: 48 h, larval mortality after 2 days, read-out: mortality in comparison with untreated controls
Protocol: Yellow Fever Mosquito (Aedes aegypti)
For evaluating control of yellow fever mosquito (Aedes aegypti) the test unit consisted of 96-well-microtiter plates containing 200 μl of tap water per well and 5-15 freshly hatched A. aegypti larvae. The active compounds were formulated using a solution containing 75% (v/v) water and 25% (v/v) DMSO. Different concentrations of formulated compounds or mixtures were sprayed onto the insect diet at 2.5 μl, using a custom built micro atomizer, at two replications. After application, microtiter plates were incubated at 28+1° C., 80+5% RH for 2 days. Larval mortality was then visually assessed.

[2] = system: boll weevil (Anthonomus grandis); experiment: Boll weevil (Anthonomus grandis) egg and larval mortality, insect diet microtiter plate; settings: 120 h, egg and larval mortality after 5 days, read-out: mortality in comparison with untreated controls
Protocol: Boll Weevil (Anthonomus grandis)
For evaluating control of boll weevil (Anthonomus grandis) the test unit consisted of 96-well-microtiter plates containing an insect diet and 5-10 A. grandis eggs. The compounds were formulated using a solution containing 75% v/v water and 25% v/v DMSO. Different concentrations of formulated compounds were sprayed onto the insect diet at 5 μl, using a custom built micro atomizer, at two replications. After application, microtiter plates were incubated at about 25±1° C. and about 75±5% relative humidity for 5 days. Egg and larval mortality was then visually assessed.

[3] = system: tobacco budworm (Heliothis virescens); experiment: whole plant or invertebrate; settings: 120 h, egg and larval mortality after 5 days, read-out: mortality in comparison with untreated controls
Protocol: Tobacco Budworm (Heliothis virescens)
For evaluating control of tobacco budworm (Heliothis virescens) the test unit consisted of 96-well-microtiter plates containing an insect diet and 15-25 H. virescens eggs. The compounds were formulated using a solution containing 75% v/v water and 25% v/v DMSO. Different concentrations of formulated compounds were sprayed onto the insect diet at 10 μl, using a custom built micro atomizer, at two replications. After application, microtiter plates were incubated at about 28±1° C. and about 80±5% relative humidity for 5 days. Egg and larval mortality was then visually assessed.

[4] = system: Green Peach Aphid (Myzus persicae); experiment: whole plant or invertebrate; settings: 120 h, aphid mortality after 5 days, read-out: mortality in comparison with untreated controls
Protocol: Green Peach Aphid (Myzus persicae)
The 10,000 ppm solution was serially diluted in 100% cyclohexanone to make interim solutions. These served as stock solutions for which final dilutions were made by the Tecan in 50% acetone:50% water (v/v) into 10 or 20 ml glass vials. A nonionic surfactant (Kinetic®) was included in the solution at a volume of 0.01% (v/v). The vials were then inserted into an automated electrostatic sprayer equipped with an atomizing nozzle for application to plants/insects. Bell pepper plants at the first true-leaf stage were infested prior to treatment by placing heavily infested leaves from the main colony on top of the treatment plants. Aphids were allowed to transfer overnight to accomplish an infestation of 30-50 aphids per plant and the host leaves were removed. The infested plants were then sprayed by an automated electrostatic plant sprayer equipped with an atomizing spray nozzle. The plants were dried in the sprayer fume hood, removed, and then maintained in a growth room under fluorescent lighting in a 14:10 light:dark photoperiod at about 25° C. and about 20-40% relative humidity. Aphid mortality on the treated plants, relative to mortality on untreated control plants, was determined after 5 days.

[5] = system: Red Spider Mite (Tetranychus kanzawai); experiment: Red spider mite (Tetranychus kanzawai) mortality on sprayed cowpea beans; settings: 72 hours after treatment, read-out: mortality in comparison with untreated controls
Protocol: Red Spider Mite (Tetranychus kanzawai)
The active compound of formula ( ))s dissolved at the desired concentration in a mixture of 1:1 (vol:vol) distilled water:acetone. Add surfactant (Kinetic) is added at a rate of 0.01% (vol/vol).The test solution is prepared at the day of use. Potted cowpea beans of 4-5 days of age are cleaned with tap water and sprayed with 1-2 ml of the test solution using air driven DeVilbiss® hand atomizer at 20-30 psi (≈1.38 to 2.07 bar). The treated plants are allowed to air dry and afterwards inoculated with 30 or more mites by clipping a cassava leaf section from rearing population. Treated plants are placed inside a holding room at about 25-26° C. and about 65-70% relative humidity. Estimate percent mortality is assessed 72 hours after treatment.

CCS(=O)(=O)c1cc(Br)cnc1-c1nc2cc(C(F)(F)F)n3ncnc3c2n1C [I.2, 8-(5-bromo-3-(ethylsulfonyl)pyridin-2-yl)-9-methyl-5-(trifluoromethyl)-9H-imidazo[4,5-c][1,2,4]triazolo[1,5-a]pyridine]
> 70%: mortality at 10 ppm ([1]; 10 ppm) | mortality at 30 ppm ([2]; 30 ppm) | mortality at 10 ppm ([3]; 10 ppm) | mortality at 10 ppm ([4]; 10 ppm) | mortality at 10 ppm ([5]; 10 ppm)

CCS(=O)(=O)c1cc(Br)ccc1-c1nc2cc(C(F)(F)F)n3ncnc3c2n1C [I.8, 11-(4-bromo-2-ethylsulfonyl-phenyl)-12-methyl-7-(trifluoromethyl)-3,5,6,10,12-pentazatricyclo[7.3.0.02,6]dodeca-1(9),2,4,7,10-pentaene]
> 70%: mortality at 800 ppm ([1]; 800 ppm) | mortality at 800 ppm [2] | mortality at 800 ppm ([3]; 800 ppm) | mortality at 800 ppm ([4]; 800 ppm) | mortality at 800 ppm [5]

CCS(=O)(=O)c1cc(N=S(C)(C)=O)cnc1-c1cn2c(cc(C(F)(F)F)n3ccnc32)n1 [I.24, [5-ethylsulfonyl-6-[7-(trifluoromethyl)-1,3,6,10-tetrazatricyclo[7.3.0.02,6]dodeca-2,4,7,9,11-pentaen-11-yl]-3-pyridyl]imino-dimethyl-oxo-λ6-sulfane]
> 70%: mortality at 800 ppm [2] | mortality at 800 ppm [5]

— patent US20240092782A1, “TRICYCLIC PESTICIDAL COMPOUNDS” (BASF SE, priority 2021, published 2024)
